Results taken from patent publication US20250197642A1, “PHTHALOCYANINE PIGMENT, PHTHALOCYANINE COMPOUND, COLORING COMPOSITION, METHOD FOR PRODUCING PHTHALOCYANINE PIGMENT, AND METHOD FOR PRODUCING COLORING COMPOSITION” (FUJIFILM CORPORATION, priority 2022, published 2025).

Experiments:
[1] = Evaluation of light fastness (compound residual rate after xenon light irradiation of ink jet image); format: physicochemical; conditions: aqueous coloring compositions 1 to 8 and A to C; image on art paper, xenon light 85,000 lux, 100 hours
Description: The pigment dispersion liquid 1, a polyurethane resin (HYDRAN (registered trademark) AP-40F (manufactured by DIC Corporation)), and deionized water were mixed to produce an aqueous pigment dispersion liquid 1 having a pigment content of 10% by mass and a polyurethane resin non-volatile content of 2% by mass.
The following components were mixed to obtain a coloring composition 1.
Coloring compositions 2 to 8 were obtained in the same manner as in the above-described method, except that the pigment dispersion liquid 1 was changed to each of the pigment dispersion liquids 2 to 8.
A coloring composition A was obtained in the same manner as in the above-described method, except that the pigment dispersion liquid 1 was changed to the pigment dispersion liquid A. […]
The above-described image was irradiated with xenon light (85,000 lux) for 100 hours using a weather meter (manufactured by Atlas, Ci65), and a reflection density after the irradiation with xenon light was measured using a reflection densitometer (manufactured by X-Rite, Inc., trade name: X-Rite i1Pro). […]
A compound residual rate (%) before and after the irradiation with xenon light was calculated from the following expression, and evaluated based on the following evaluation standard. […]

[2] = Evaluation of storage stability (viscosity increase proportion after storage); format: physicochemical; conditions: aqueous coloring compositions 1 to 8 and A to C; stored 7 days at 45° C., viscosity at 25° C.
Experimental: In an environment of 45° C. by an oven, the coloring compositions 1 to 8 and the coloring compositions A to C were stored for 7 days.
A viscosity of the coloring composition before and after the storage was measured, a viscosity increase proportion (Viscosity after storage−Viscosity before storage)/Viscosity before storage×100 was determined, and the evaluation was performed based on the following evaluation standard.
The viscosity of the coloring composition was measured using a viscometer RE85L (rotor: 1°34′×R24, measurement range: 0.6 to 1200 mPa·s) manufactured by TOKI-SANGYO Co., Ltd. in a state in which the temperature was adjusted to 25° C.
• A: viscosity increase proportion was 10% or less. • B: viscosity increase proportion was more than 10%.

## C. I. Pigment Green 58 [PG58]
[1]
  Evaluation of light fastness: A (compound residual rate was 80% or more)
[2]
  Evaluation of storage stability: B (viscosity increase proportion was more than 10%)
